# Counter-ions that a name gives are not always drawn.
# Molecular target: T1, HCV polymerase (Hepatitis C virus genotype 1b, UniProt P26663)
# T1 construct: a region encoding NS5B (J Virol 1991 March, 65(3), 1105-13, 544 amino acids after deletion of 47 amino acids on the C-terminal); 6xHis (C); made in house; host or cells: Escherichia coli
# Experiment: biochemical
# Design: species or system HCV BK strain
# Settings: not given
# Summary of the method: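 Recombinant HCV BK-strain NS5B (C-terminal 47 aa deleted, His6-tagged, E. coli), 0.5 μg/ml, run with 5 μg/ml in vitro-transcribed RNA template (polyU/3′X), ATP/GTP/CTP 50 μM, UTP 2 μM plus [3H]UTP, pH 7.5, 25° C, 90 min. TCA-precipitated RNA counted by scintillation; IC50 from activity with vs without compound.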
# T1 sequence (P26663 2420-2963): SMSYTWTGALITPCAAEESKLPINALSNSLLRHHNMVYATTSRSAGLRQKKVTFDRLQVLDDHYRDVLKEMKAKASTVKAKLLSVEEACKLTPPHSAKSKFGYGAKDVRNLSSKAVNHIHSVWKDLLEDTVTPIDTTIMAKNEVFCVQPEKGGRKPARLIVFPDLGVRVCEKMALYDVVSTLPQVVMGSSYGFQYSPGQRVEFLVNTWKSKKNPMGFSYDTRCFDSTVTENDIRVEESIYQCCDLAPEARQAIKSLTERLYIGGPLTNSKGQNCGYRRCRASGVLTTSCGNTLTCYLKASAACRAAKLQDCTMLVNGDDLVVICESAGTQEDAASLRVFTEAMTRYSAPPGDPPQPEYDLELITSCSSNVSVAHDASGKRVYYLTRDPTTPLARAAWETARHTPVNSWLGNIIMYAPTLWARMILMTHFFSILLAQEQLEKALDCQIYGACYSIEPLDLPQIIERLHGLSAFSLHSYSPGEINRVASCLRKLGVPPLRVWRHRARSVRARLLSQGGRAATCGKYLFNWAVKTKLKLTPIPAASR
row,SMILES,IC50
1,"COC(=O)C(Cc1ccc(CO)cc1)NC(=O)c1ccc2c(C3CCCCC3)c3n(c2c1)CCOc1cc(OC)ccc1-3 (centres unmarked) [Example 2-393, methyl 2-[(12-cyclohexyl-3-methoxy-6,7-dihydro-5-oxa-7a-azadibenzo[a,e]azulene-9-carbonyl)amino]-3-(4-hydroxymethylphenyl)propionate]",< 100 nM
2,"COC(=O)N1CCCN(CCN2CCn3c(c(C4CCCCC4)c4ccc(C(=O)O)cc43)-c3ccc(C)cc32)CC1 [Example 1-518, 13-cyclohexyl-5-[2-(4-methoxycarbonyl-1,4-diazepan-1-yl)ethyl]-3-methyl-6,7-dihydro-5H-benzo[5,6][1,4]diazepino[7,1-a]indole-10-carboxylic acid dihydrochloride]",< 100 nM
3,"O=C(O)c1ccc2c(C3CCCCC3)c3n(c2c1)CCN(CCN1CCCC1)c1ccccc1-3 [Example 1-57, 13-cyclohexyl-5-[2-(pyrrolidin-1-yl)ethyl]-6,7-dihydro-5H-benzo[5,6][1,4]diazepino[7,1-a]indole-10-carboxylic acid dihydrochloride]",< 100 nM
4,"COc1ccc2c(c1)OCCn1c-2c(C2CCCCC2)c2ccc(C(=O)NC(C)(C)c3ncc(-c4ccc(C(=O)O)cc4)[nH]3)cc21 [Example 2-399, 4-(2-{1-[(12-cyclohexyl-3-methoxy-6,7-dihydro-5-oxa-7a-azadibenzo[a,e]azulene-9-carbonyl)amino]-1-methylethyl}-3H-imidazol-4-yl)benzoic acid]",< 100 nM
5,"Cc1ccc2c(c1)N(CCN1CCCC(C)(C)C1)CCn1c-2c(C2CCCCC2)c2ccc(C(=O)O)cc21 [Example 1-440, 13-cyclohexyl-5-[2-(3,3-dimethylpiperidin-1-yl)ethyl]-3-methyl-6,7-dihydro-5H-benzo[5,6][1,4]diazepino[7,1-a]indole-10-carboxylic acid dihydrochloride]",< 100 nM
6,"O=C(O)/C=C/c1ccc(NC(=O)C2(NC(=O)c3ccc4c(C5CCCCC5)c5n(c4c3)CCOc3ccccc3-5)CCNCC2)cc1 [Example 2-174, (E)-3-[4-({4-[(12-cyclohexyl-6,7-dihydro-5-oxa-7a-azadibenzo[a,e]azulene-9-carbonyl)amino]piperidine-4-carbonyl}amino)phenyl]acrylic acid]",< 100 nM
7,"CC(C)c1ccc2c(c1)N(CCC1CCCN(C(C)C)C1)CCn1c-2c(C2CCCCC2)c2ccc(C(=O)O)cc21 (centres unmarked) [Example 1-381, 13-cyclohexyl-3-isopropyl-5-[2-(1-isopropylpiperidin-3-yl)ethyl]-6,7-dihydro-5H-benzo[5,6][1,4]diazepino[7,1-a]indole-10-carboxylic acid dihydrochloride]",< 100 nM
8,"O=C(O)c1ccc2c(C3CCCCC3)c3n(c2c1)CCN(CCN1CCCCCCCC1)c1ccccc1-3 [Example 1-155, 5-[2-(azonan-1-yl)ethyl]-13-cyclohexyl-6,7-dihydro-5H-benzo[5,6][1,4]diazepino[7,1-a]indole-10-carboxylic acid]",< 100 nM
9,"COC[C@](C)(NC(=O)c1ccc2c(C3CCCCC3)c3n(c2c1)CCOc1cc(OC)ccc1-3)C(=O)Nc1ccc(/C=C/C(=O)O)cc1 [Example 2-537, (E)-3-{4-((S)-2-[(12-cyclohexyl-3-methoxy-6,7-dihydro-5-oxa-7a-azadibenzo[a,e]azulene-9-carbonyl)amino]-3-methoxy-2-methylpropionylamino}phenyl)acrylic acid]",< 100 nM

# Same assay, conditions: 25° C., 90 min; [5,6-3H]UTP incorporation into RNA; read-out: HCV polymerase inhibitory activity IC50
row,SMILES,IC50
1,"COCC1CCCN(CCN2CCn3c(c(C4CCCCC4)c4ccc(C(=O)O)cc43)-c3ccc(C)cc32)C1 (centres unmarked) [Example 1-294, 13-cyclohexyl-5-[2-(3-methoxymethylpiperidin-1-yl)ethyl]-3-methyl-6,7-dihydro-5H-benzo[5,6][1,4]diazepino[7,1-a]indole-10-carboxylic acid dihydrochloride]",< 100 nM

# Same assay, conditions: read-out: HCV polymerase inhibitory activity IC50; 25° C., 90 min; [5,6-3H]UTP incorporation into RNA
row,SMILES,IC50
1,COC(=O)C(Cc1c[nH]c2ccc(O)cc12)NC(=O)c1ccc2c(C3CCCCC3)c3n(c2c1)CCOc1ccccc1-3 (centres unmarked) [Example 2-210],< 100 nM
